In test [1] the test system is lymphocytes of patients suffering from rheumatoid arthritis. In words: Active E-rosette test, lymphocytes of rheumatoid arthritis patients. Type of test: cell-based, human. To be noted: for E-rosette forming activity, percentage amount of active lymphocytes: n = 4; for Effect on E-rosette forming activity (in words): 10^-5 moles/lit. The method, then: (§1) The active E-rosette test was carried out according to a modified method of Wybran et al [Wybran et al: New Engl. J. Med. 292, 475 (1975)] by the lymphocites of healthy and autoimmune patients (rheumatoid arthritis and systemic lupus erythematosus). To 50 μl of a lymphocyte cell suspension 10^-3 -10^-11 moles/lit. solutions of the test material were added and the mixture was incubated in an atmosphere containing 5.0% of carbon dioxide, at 37° C. for 60 minutes. Thereafter 50 μlit. of a 1% sheep erythrocite suspension were added and the mixture was centrifuged at 1000 r.p.m. for 10 minutes followed by shaking with a modified Gallenkampf-shaker (shaking time: 30 sec, stroke: 8 cm, shaking frequency: 65/min.). The rosettes were fixed with a 0.1% glutaric aldehyde (50 μlit. for each tube, 3 min.). Lymphocytes bonding more than three sheep erythrocite were counted under a microscope and 4×100 cells were evaluated. The separated lymphocytes contain macrophages and polymorphonuclear cells (up to 10%) as an impurity. The number of the cells forming the rosettes was corrected by this value each case.

The subject of test [2] is lymphocytes of healthy persons. In words: Active E-rosette test, lymphocytes of healthy persons. Type of test: cell-based, human. The note with it: for E-rosette forming activity, percentage amount of active lymphocytes: n = 4. The method, then: as §1

Non-standard residues stand in square brackets, D forms with d. Residues, ends and D or L forms follow the SMILES beside them. pGlu = O=C1CC[C@@H](C(=O)O)N1

With `CC(C)[C@H](NC(=O)[C@H](CC(=O)O)NC(=O)[C@H](C)NC(=O)[C@@H](N)CCCNC(=N)N)C(=O)O` [Arg--Ala--Asp--Val, Arg-Ala-Asp-Val] (H-RADV-OH), the “E-rosette forming activity, percentage amount of active lymphocytes” value in test [1] (10^-3 moles/liter) came out at 21.8%; in test [1] (10^-5 moles/liter), 20.2%; in test [1] (10^-7 moles/liter) it was 19.8%; in test [1] (10^-9 moles/liter) it was 20.7%; in test [1] (10^-11 moles/liter), 22.5%; in test [2] (10^-3 moles/liter) it was 32.5%. In addition, the “E-rosette forming activity, percentage amount of active lymphocytes” value in test [2] (10^-5 moles/liter) is 33.4%; in test [2] (10^-7 moles/liter), 32.4%; in test [2] (10^-9 moles/liter), 38.2%; in test [2] (10^-11 moles/liter), 36.0%.
In the case of `CC(C)[C@H](NC(=O)[C@H](CCCCN)NC(=O)[C@H](CC(=O)O)NC(=O)[C@@H](N)CCCNC(=N)N)C(=O)O` [Arg--Asp--Lys--Val, Arg-Asp-Lys-Val] (H-RDKV-OH), the “E-rosette forming activity, percentage amount of active lymphocytes” value in test [1] (10^-3 moles/liter) came out at 25.4%; in test [1] (10^-5 moles/liter), 26.2%; in test [1] (10^-7 moles/liter) it was 26.4%; in test [1] (10^-9 moles/liter), 27.3%; in test [1] (10^-11 moles/liter) it was 27.5%; in test [2] (10^-3 moles/liter), 34.2%. The “E-rosette forming activity, percentage amount of active lymphocytes” value in test [2] (10^-5 moles/liter) was found to be 37.5%; in test [2] (10^-7 moles/liter) it was 37.7%; in test [2] (10^-9 moles/liter), 40.4%; in test [2] (10^-11 moles/liter), 36.4%. For the same molecule, the “Effect on E-rosette forming activity (in words)” value in test [2] (10^-9 moles/lit.) was “significant stimulating effect”.
Turning to `CC(C)[C@H](NC(=O)[C@H](C)NC(=O)[C@H](CCCCN)NC(=O)[C@@H](N)CCCNC(=N)N)C(=O)O` [Arg--Lys--Ala--Val, Arg-Lys-Ala-Val] (H-RKAV-OH), the “E-rosette forming activity, percentage amount of active lymphocytes” value in test [1] (10^-3 moles/liter) was determined as 20.3%; in test [1] (10^-5 moles/liter) it was 23.4%; in test [1] (10^-7 moles/liter), 21.7%; in test [1] (10^-9 moles/liter) it was 25.5%; in test [1] (10^-11 moles/liter), 23.1%; in test [2] (10^-3 moles/liter), 33.3%. The “E-rosette forming activity, percentage amount of active lymphocytes” value in test [2] (10^-5 moles/liter) stood at 30.5%; in test [2] (10^-7 moles/liter), 35.8%; in test [2] (10^-9 moles/liter), 34.5%; in test [2] (10^-11 moles/liter), 30.9%.
As for `CC(C)[C@H](NC(=O)[C@H](CCC(=O)O)NC(=O)[C@H](CCCCN)NC(=O)[C@@H](N)CCCNC(=N)N)C(=O)O` [Arg--Lys--Glu--Val, Arg-Lys-Glu-Val] (H-RKEV-OH), the “E-rosette forming activity, percentage amount of active lymphocytes” value is 33.2% in test [2] (10^-3 moles/liter); 32.9% in test [2] (10^-5 moles/liter); 36.2% in test [2] (10^-7 moles/liter); 35.4% in test [2] (10^-9 moles/liter); 33.0% in test [2] (10^-11 moles/liter).
On to `N=C(N)NCCC[C@H](NC(=O)[C@@H]1CCC(=O)N1)C(=O)N[C@@H](CCCCN)C(=O)N[C@@H](CC(=O)O)C(=O)O` [compound No. 8] ([pGlu]RKD-OH), for which, in test [1], the “Effect on E-rosette forming activity (in words)” value was “significant inhibiting activity”.
Same read-out and setting: then `CC(C)[C@H](NC(=O)[C@H](CC(N)=O)NC(=O)[C@H](CCCCN)NC(=O)[C@@H](N)CCCNC(=N)N)C(=O)O` [compound No. 9] (H-RKNV-OH), with “significant inhibiting activity”.

The values are drawn from US4428938A, “Peptides affecting the immune regulation and a process for their preparation” (Richter Gedeon Vegyeszeti Gyar Rt., priority 1981, dated 1984).
